Experimental data from US20050153395A1, “Unique integrin binding site in connective tissue growth factor (CTGF)” (CHILDREN'S HOSPITAL INC., priority 2003, published 2005).

How the values were obtained:
[1] = system: hepatic stellate cells (HSC); experiment: HSC adhesion assay on coated wells (CyQUANT fluorescence); format: cell-based, rat; settings: for HSC adhesion supported by the coated substance: coated at 2 μg/ml; for inhibition of CTGF4-mediated HSC adhesion: wells coated 2 μg/ml CTGF4, antibody/IgG 25 μg/ml, heparin 2 μg/ml; for effect of divalent cation on HSC adhesion to CTGF4: 10 mM cation, after EDTA
Procedure: CTGF4 is known to be expressed in hepatic stellate cells (HSC) and to induce proliferation and extracellular matrix (ECM) production in these cells. (Williams et al., J Hepatol 32, 754-761, 2000; Paradis et al., Lab Invest 82, 767-774, 2002). The following experiments were carried out to determine if HSCs adhere to CTGF. HSCs were isolated from normal Sprague-Dowley rate by sequential perfusion with pronase/collagenase and purified by density gradient separation as described in Vyas et al. (Gastroenterology 109: 889-898, 1995).
The cells were subsequently detached using 1 mM EDTA PBS (137 mM NaCl, 2.7 mM KCl, 4.3 mM Na2HPO4, 1.4 mM KH2PO4, pH 7.3), washed twice in DMEM and resuspended in serum free medium containing 0.5% BSA. The cells-were plated (1.25×10^4 cells/well) in a 96 well plate coated with one of the following: 2 μg/ml CTGF isoform (CTGF1-4, CTGF3-4, CTGF4), 1 μg/ml laminin, or 4 μg/ml vitronectin and incubated for 20 minutes at 37° C. Subsequently the cells were washed with PBS and the adherent cells were fixed with 10% formalin and stained with CyQUANT GR dye/cell lysis buffer (Molecular Probes , Eugene, Oreg.) according to the manufacturer's instructions. The number of cells that adhered to CTGF isoforms or ECM protein was quantified by measuring the sample fluorescence intensity at Ex/Em: 480/520 nm using a micro-plate reader (CytoFluor™ 2350).
To determine if the CTGF-mediated HSC adhesion was carried out through integrin receptors, the experiment described above were carried out in the presence and absence of 10 mM EDTA. […] It is widely believed that Mn^2+ induces conformational shifts that mimic the physiological activation of β1 and β3 integrins (Roberts et al., J Biol Chem 278: 1975-1985, 2003, van der Pauw et al., J Periodontal Res 37: 317-323, 2002) as Mn^2+-induced activation leads to enhanced ligand-binding affinity and cell adhesion (Mould et al., J Biol Chem 277: 19800-19805, 2002, Loftus & Liddington J Clin Invest 100: S77-81, 1997, Lin et al., J Biol Chem 272: 14236-14243, […]).
Synthetic peptides GRGDsp (1 mM), GRGEsp (1 mM), Echistatin (2 μM) or vehicle buffer alone were added to the, HSC culture medium 30 minutes prior to plating.
In addition, adhesion assays as described in Example 1 were carried out in CTGF4 coated plates in the presence and absence of monoclonal antibody specific for αvβ3 (LM609).

[2] = system: pancreatic stellate cells (PSC); experiment: PSC adhesion assay on coated wells; format: cell-based, rat; settings: for inhibition of PSC adhesion to CTGF4: 2 μg/ml CTGF4 coat, EDTA 5 mM, antibodies 25 μg/ml, heparin 2 μg/ml, peptides 35 μM; for PSC adhesion supported by the coated substance: coated at 2 μg/ml; for inhibition of FN-mediated PSC adhesion: fibronectin coat; for restoration of CTGF-mediated PSC adhesion after EDTA: 10 mM cation, 5 mM EDTA
Source text: Rat PSCs were isolated by a modification of the method described by Phillips et al., Gut; 52:677-82, 2003. Briefly, pancreatic tissue was digested in situ with 0.03% collagenase P (Roche, Indianapolis, Ind.) in HBSS by perfusion through the thoracic aorta. This protocol was approved by the Institutional Animal Care and Use Committee of Children's Research Institute, Columbus, Ohio. The tissue was pooled, minced with scissors, and then digested with 0.05% collagenase P, 0.02% protease XIV (Sigma, St. Louis), and DNase I (Roche, Indianapolis, Ind.) in HBSS. The resulting cell suspension was centrifuged in a 12% Optiprep gradient at 1400 g for 14 minutes. Stellate cells separated into a hazy band just above the interface of a the gradient and the aqueous buffer. This band was harvested, and the cells washed and resuspended in DMEM supplemented with 25 mM Hepes buffer, 10% FBS, and 100 U/ml penicillin in, 100 μg/ml streptomycin. The, cells were maintained at 37° C. in a humidified atmosphere of 5% CO2/95% air.
The ability of activated PSC to adhere to non-tissue culture plastic microtiter wells coated with recombinant CTGF1-4, CTGF3-4 or CTGF4 was investigated. The solid phase binding assay was carried out as described in Example 2. […] To assess the possibility that CTGF-mediated PSC adhesion involved cell surface integrins, the effect of divalent cations on cell adhesion was examined, as described in Example 2. […]
Because CTGF is a heparin-binding protein, this property was further investigated.
To identify the peptides that bind to PSCs, cell adhesion assays were carried out as described in Example 3.
To further investigate the peptide binding, P2 or P5 (10 μM) or vehicle buffer alone (no add) were added to PSC cell suspensions for 30 minutes at room temperature.

integrin α5β1 = integrin α5β1 (Homo sapiens, UniProt P05556+P08648); experiment: Solid phase ELISA of integrin α5β1 binding; settings: for inhibition of cell-free binding of integrin α5β1 to FN: FN 4 μg/ml; for reversal of EDTA inhibition of α5β1 binding to CTGF4: 10 mM cation
Procedure: In a second approach, a solid phase binding assay was used in which CTGF1-4 or FN were individually coated onto microtiter wells that were subsequently incubated with purified integrin α5β1. The presence of immobilized integrin α5β1 was detected by ELISA using an anti-integrin α5β1 antibody similar to the methods described in Example 3 above. In addition, CTGF1-4 bound to integrin α5β1 in a dose-dependent manner, with maximal binding at 2 μg/ml CTGF. This level of CTGF1-4 (2 μg/ml) binding was the same as that elicited by 2 μg/ml FN, a well known ligand of integrin α5β1. In a similar experiment, 2 μg/ml of CTGF1-4;CTGF3-4 or CTGF4 were individually precoated onto microtiter wells. Using the solid-phase assay, integrin α5β1 bound to CTGF1-4, CTGF3-4 or CTGF4 See FIG. 5 (Panel B).
To directly analyze whether α5β1 integrin binds to CTGF4, microtiter wells coated with CTGF4 (2 μg/ml) or FN (4 μg/ml) were used in an ELISA assay to detect integrin binding, as described in Example 3. For these assays, 1 μg/ml integrin α5β1, alone or in the presence of 35 μM of P2peptide (CTGF[257-272]) and 35 μM of P5 peptide (CTGF [285-291]), were added to the precoated plates. […] The binding between CTGF4 and integrin α5 β1 was blocked by peptide P5 (CTGF [285-291]) or peptide P2 (CTGF[257-272]). […]

integrin αvβ3 = integrin αvβ3 (Homo sapiens, UniProt P05106+P06756); experiment: Solid phase ELISA of integrin αvβ3 binding; settings: for inhibition of αvβ3 binding to CTGF4: 35 μM peptide pre-incubated with 1 μg/ml αvβ3
Procedure: Solid phase binding studies were also performed to investigate the binding of CTGF isoforms and αvβ3. Each CTGF isoform or vitronectin was individually coated onto microtiter wells at different concentrations, and the subsequent binding of αvβ3 was detected by ELISA using an anti-human αvβ3 monoclonal antibody. […] Saturation of binding occurred at 2 μg/ml for each CTGF isoform and 4 μg/ml for vitronectin.
In order to identify the αvβ3 binding site in CTGF4, eighteen synthetic peptides spanning the entire C-terminal region of CTGF4 (residues 246-349 of SEQ ID NO: 1) were synthesized and used as potential blocking agents in the solid phase binding studies as described in Example 3. Microtiter wells (Dynex Technology) were pre-coated with different CTGF isoforms at desired concentrations at 4° C. for 16 hours, and then blocked with 2% BSA at room temperature for 2 hours. The plates were washed, four times with PBS, pH 7.3, containing 1 mM CaCl2 and 1 mM MgCl2. Integrin αvβ3 (1 μg/ml) was pre-incubated with each synthetic peptide for 1 hour in blocking solution, and then added to each well, and incubated at room temperature for 3 hours. Integrin αvβ3 was detected by successive incubation with anti-human αvβ3 monoclonal antibody diluted in blocking solution (1:1000), and followed by HRP-conjugated goat anti-mouse IgG (1:4000). The color reaction was developed using the horseradish peroxidase ELISA reagents (Chemicon), and the absorbance at 450 nm was measured using Bio Assay Reader (HTS700).
The ability of mutant CTGF4 to bind to integrin αvβ3 was assessed by solid phase ELISA which measured the ability of purified integrin αvβ3 to bind to the CTGF4 mutants.

CTGF promoter = CTGF promoter luciferase reporter pCCN2-Luc in PSCs; format: cell-based, rat; settings: P<0.01 compared with no stimulation
Procedure: TGF-β1 is a well characterized transcriptional activator of CTGF in other cell types. To further examine the mechanism by which TGF-β1 and other fibrogenic stimulators could influence CTGF production in PSCs, CTGF promoter activity in PSCs was evaluated using the luciferase reporter, pCCN2-Luc, as described in Gao et al., (J Hepatol 2004;40:431-8).

PSCs [3] = experiment: PSC DNA synthesis, [3H]thymidine incorporation; format: cell-based, rat; settings: 24 hours; CTGF1-4 effect in 0.1% serum, not in serum-free medium
Procedure: To measure the effect of CTGF on cell proliferation, DNA synthesis was measured by ^3H incorporation in PSCs. The cells were incubated for 24 hours with 0.2 μCi [^3H] thymidine in each well (24-well plate). The incorporation of [^3H] thymidine into PSC DNA was determined using a scintillation counter after the cells had been washed with PBS, fixed with 10% methanol, treated with cold 5% trichloroacetic acid, and lysed in 0.3 N NaOH.

PSCs [4] = experiment: PSC chemotaxis (migration) assay in culture insert; format: cell-based, rat; settings: substance in lower chamber
Procedure: To examine whether CTGF plays a role in PSC migration, a chemotaxis assay was carried out in which the migratory behavior of PSCs in the upper chamber of a culture insert was assessed following addition of CTGF to the lower chamber. […] PSC migration was also promoted by FN, PDGF or TGF-β1.

[5] = EDTA 10 mM, GRGDsp 1 mM, Echistatin 2 μM

Chain of integrin α5β1 (P08648 42-894 limits assumed): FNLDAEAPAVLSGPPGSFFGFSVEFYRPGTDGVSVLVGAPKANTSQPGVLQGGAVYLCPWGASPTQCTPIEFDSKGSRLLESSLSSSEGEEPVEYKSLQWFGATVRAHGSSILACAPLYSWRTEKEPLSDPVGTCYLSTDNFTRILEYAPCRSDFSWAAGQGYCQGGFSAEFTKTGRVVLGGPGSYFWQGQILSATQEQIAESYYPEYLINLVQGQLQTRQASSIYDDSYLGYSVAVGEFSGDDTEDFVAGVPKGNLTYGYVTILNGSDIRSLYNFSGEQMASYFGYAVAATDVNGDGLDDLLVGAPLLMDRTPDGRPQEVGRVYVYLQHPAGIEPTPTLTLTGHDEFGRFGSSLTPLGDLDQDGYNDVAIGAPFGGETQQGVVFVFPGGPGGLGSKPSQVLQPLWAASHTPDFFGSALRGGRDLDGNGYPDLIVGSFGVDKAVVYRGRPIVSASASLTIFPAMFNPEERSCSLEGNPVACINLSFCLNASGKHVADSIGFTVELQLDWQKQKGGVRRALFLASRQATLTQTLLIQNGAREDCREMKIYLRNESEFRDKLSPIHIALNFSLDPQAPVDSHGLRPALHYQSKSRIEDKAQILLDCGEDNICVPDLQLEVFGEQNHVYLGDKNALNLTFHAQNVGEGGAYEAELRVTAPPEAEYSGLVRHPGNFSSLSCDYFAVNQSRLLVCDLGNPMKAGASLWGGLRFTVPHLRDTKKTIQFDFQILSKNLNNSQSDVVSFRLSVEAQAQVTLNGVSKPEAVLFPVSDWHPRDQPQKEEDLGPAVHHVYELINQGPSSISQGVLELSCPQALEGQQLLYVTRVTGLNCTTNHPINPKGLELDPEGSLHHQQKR
Chain of integrin α5β1 (P08648 895-1049 partner limits assumed): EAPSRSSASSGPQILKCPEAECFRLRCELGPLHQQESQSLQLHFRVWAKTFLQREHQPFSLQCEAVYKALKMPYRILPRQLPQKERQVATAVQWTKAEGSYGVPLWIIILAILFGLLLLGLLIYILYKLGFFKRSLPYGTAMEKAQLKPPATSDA
Chain of integrin α5β1 (P05556 21-798): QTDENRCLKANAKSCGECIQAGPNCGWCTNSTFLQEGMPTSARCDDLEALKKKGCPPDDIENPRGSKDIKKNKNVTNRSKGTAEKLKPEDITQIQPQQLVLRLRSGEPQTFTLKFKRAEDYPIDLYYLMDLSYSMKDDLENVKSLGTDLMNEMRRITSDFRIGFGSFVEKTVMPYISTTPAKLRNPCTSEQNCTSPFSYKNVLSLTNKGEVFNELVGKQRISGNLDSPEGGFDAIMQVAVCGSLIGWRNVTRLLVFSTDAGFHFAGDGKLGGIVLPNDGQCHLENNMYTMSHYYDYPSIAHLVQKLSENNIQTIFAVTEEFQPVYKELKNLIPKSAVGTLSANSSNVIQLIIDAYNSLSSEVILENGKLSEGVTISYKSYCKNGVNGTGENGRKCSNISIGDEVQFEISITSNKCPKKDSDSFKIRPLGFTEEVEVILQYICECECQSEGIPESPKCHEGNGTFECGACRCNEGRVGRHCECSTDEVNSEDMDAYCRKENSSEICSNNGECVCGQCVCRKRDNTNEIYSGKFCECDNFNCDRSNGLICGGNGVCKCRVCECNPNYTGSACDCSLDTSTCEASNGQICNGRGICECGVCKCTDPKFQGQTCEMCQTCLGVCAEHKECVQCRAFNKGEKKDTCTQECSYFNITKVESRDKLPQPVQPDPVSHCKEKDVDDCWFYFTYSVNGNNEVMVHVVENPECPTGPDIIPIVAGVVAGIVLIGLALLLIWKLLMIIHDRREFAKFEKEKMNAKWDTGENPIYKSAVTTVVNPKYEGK
Chain of integrin αvβ3 (P06756 31-889 limits assumed): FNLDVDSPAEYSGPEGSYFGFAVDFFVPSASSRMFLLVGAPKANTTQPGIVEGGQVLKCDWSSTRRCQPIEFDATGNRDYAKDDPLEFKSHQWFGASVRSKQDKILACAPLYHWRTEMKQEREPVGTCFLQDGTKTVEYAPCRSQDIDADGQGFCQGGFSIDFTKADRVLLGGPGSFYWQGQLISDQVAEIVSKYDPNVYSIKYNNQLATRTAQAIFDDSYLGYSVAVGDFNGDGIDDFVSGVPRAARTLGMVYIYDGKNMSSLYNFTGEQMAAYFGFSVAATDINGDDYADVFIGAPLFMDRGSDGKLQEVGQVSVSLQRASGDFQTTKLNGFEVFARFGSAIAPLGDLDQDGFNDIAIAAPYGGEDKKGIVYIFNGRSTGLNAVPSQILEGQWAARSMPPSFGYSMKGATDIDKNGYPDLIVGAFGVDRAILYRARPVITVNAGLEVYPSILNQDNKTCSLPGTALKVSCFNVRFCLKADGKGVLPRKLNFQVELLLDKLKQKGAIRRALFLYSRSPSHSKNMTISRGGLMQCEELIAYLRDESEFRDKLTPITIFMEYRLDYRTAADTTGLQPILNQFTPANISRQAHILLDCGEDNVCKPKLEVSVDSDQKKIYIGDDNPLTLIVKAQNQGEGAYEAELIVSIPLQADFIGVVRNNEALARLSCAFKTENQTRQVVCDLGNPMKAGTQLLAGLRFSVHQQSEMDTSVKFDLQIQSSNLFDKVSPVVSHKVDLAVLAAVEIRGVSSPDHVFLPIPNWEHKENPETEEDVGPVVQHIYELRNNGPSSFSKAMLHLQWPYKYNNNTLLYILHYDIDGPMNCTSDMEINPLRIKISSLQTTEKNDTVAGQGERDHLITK
Chain of integrin αvβ3 (P06756 891-1048 partner limits assumed): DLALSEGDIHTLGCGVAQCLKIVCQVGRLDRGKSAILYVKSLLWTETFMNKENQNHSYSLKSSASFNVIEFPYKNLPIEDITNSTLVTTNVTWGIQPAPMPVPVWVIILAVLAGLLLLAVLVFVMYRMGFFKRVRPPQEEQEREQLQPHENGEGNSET
Chain of integrin αvβ3 (P05106 27-788): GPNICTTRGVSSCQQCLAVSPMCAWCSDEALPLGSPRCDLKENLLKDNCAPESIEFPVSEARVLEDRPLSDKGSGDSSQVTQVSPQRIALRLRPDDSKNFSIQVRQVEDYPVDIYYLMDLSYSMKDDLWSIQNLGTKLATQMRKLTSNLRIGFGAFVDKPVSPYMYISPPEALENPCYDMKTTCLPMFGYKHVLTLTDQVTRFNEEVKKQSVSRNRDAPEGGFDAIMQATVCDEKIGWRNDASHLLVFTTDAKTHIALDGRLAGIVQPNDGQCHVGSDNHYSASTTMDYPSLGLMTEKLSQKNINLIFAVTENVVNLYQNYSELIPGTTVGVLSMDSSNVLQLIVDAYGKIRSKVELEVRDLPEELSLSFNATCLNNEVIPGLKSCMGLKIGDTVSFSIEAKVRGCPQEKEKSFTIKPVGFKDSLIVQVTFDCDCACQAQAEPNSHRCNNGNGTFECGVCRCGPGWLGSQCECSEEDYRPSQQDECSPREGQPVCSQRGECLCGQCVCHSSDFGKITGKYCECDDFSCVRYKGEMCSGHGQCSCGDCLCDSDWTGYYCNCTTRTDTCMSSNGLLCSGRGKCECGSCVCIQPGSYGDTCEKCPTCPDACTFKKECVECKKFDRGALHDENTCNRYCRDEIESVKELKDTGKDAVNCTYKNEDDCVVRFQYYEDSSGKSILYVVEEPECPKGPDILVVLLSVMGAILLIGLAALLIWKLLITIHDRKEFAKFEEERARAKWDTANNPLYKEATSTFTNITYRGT

Compound: IRTPKISKPIKFELSG [CTGF[257-272]]
- HSC adhesion to coated peptide, saturation [1]: 2 µg/mL
- HSC adhesion supported by the coated substance [1]: promoted HSC adhesion in a concentration-dependent manner
- inhibition of PSC adhesion to CTGF4 [2]: completely inhibited
- PSC adhesion supported by the coated substance [2]: able to support the adhesion
- inhibition of FN-mediated PSC adhesion [2]: unaffected
- inhibition of cell-free binding of integrin α5β1 to FN (integrin α5β1; peptides 35 μM): did not block
- inhibition of αvβ3 binding to CTGF4 (integrin αvβ3): completely inhibited
- inhibition of αvβ3 binding to vitronectin (integrin αvβ3; 35 μM peptide, 4 μg/ml VN coat): 85%

Compound: [Na+].[O-][Cl+2]([O-])[O-] [sodium chlorate]
- inhibition of CTGF4-mediated HSC adhesion [1, 5]: Inability of HSC to adhere to CTGF4
- inhibition of vitronectin-mediated HSC adhesion ([1]; wells coated 4 μg/ml vitronectin): unaffected

Compound: [Ca+2] [Ca^2+]
- effect of divalent cation on HSC adhesion to CTGF4 [1]: completely abolished
- restoration of CTGF-mediated PSC adhesion after EDTA [2]: restored
- reversal of EDTA inhibition of α5β1 binding to CTGF4 (integrin α5β1): reversed

Compound: vitronectin: ECM protein, known ligand of αvβ3 [reference compound]
- saturation of αvβ3 binding at coating concentration (integrin αvβ3; 1 μg/ml integrin αvβ3): 4 µg/mL

Compound: chondroitinase ABC
- inhibition of CTGF4-mediated HSC adhesion [1, 5]: no effect

Compound: GRGDsp
- inhibition of CTGF1-4-mediated HSC adhesion ([1]; wells coated 2 μg/ml CTGF1-4, EDTA 10 mM, GRGDsp 1 mM, Echistatin 2 μM): 45%
- inhibition of CTGF3-4-mediated HSC adhesion ([1]; wells coated 2 μg/ml CTGF3-4, EDTA 10 mM, GRGDsp 1 mM, Echistatin 2 μM): 51%
- inhibition of CTGF4-mediated HSC adhesion [1, 5]: 58%

Compound: CTGF[259-272]: CTGF4 peptide that covers 87.5% of the sequence of peptide CTGF[257-272] (TPKISKPIKFELSG)
- inhibition of αvβ3 binding to CTGF4 (integrin αvβ3): 67%

Compound: CCO [ethanol]
- activity of pCCN2-Luc in PSC (CTGF promoter): significantly increased

Compound: PDGF
- PSC proliferation (DNA synthesis) (PSCs [3]): significantly enhanced
- activity of pCCN2-Luc in PSC (CTGF promoter): significantly increased
- PSC migration (PSCs [4]): promoted

Compound: [Mg+2] [Mg^2+]
- effect of divalent cation on HSC adhesion to CTGF4 [1]: restored
- restoration of CTGF-mediated PSC adhesion after EDTA [2]: restored
- reversal of EDTA inhibition of α5β1 binding to CTGF4 (integrin α5β1): reversed

Compound: CC=O [acetaldehyde]
- activity of pCCN2-Luc in PSC (CTGF promoter): significantly increased

Compound: [Mn+2] [Mn^2+]
- effect of divalent cation on HSC adhesion to CTGF4 [1]: restored

Compound: IRTPAAAAPIKFELSG [Mutant 2, mutant CTGF4 protein with K261A, I262A, S263A, K264A]
- HSC adhesion relative to wild-type CTGF4 ([1]; mutant CTGF4 proteins): completely unable to support HSC adhesion

Compound: GVCTDGR [Peptide P5]
- inhibition of PSC adhesion to CTGF4 [2]: completely inhibited
- PSC adhesion supported by the coated substance [2]: able to support the adhesion
- inhibition of FN-mediated PSC adhesion [2]: able to block
- inhibition of binding between CTGF4 and integrin α5β1 (integrin α5β1; peptides 35 μM, EDTA 5 mM): blocked
- inhibition of cell-free binding of integrin α5β1 to FN (integrin α5β1; peptides 35 μM): blocked

Compound: EENIKKGKKCIRTP (listed as Homo sapiens) [CTGF[247-260]]
- HSC adhesion supported by the coated substance [1]: no adhesion ability
